Test [1] deals with SCC4 cells of head and neck cancer. Description: transwell migration test. The class given is cell-based, human. Particulars: 24 h. On the procedure: Inoculate SCC4 cells of head and neck cancer, SW579 cells of thyroid cancer, A549 cells of lung cancer, TE13 cells of esophageal squamous cell carcinoma, MGC803 cells of stomach cancer, MDA-MB-231 cells of breast cancer, UOK262 cells of kidney cancer, and A431 cells of skin cancer of human to transwell cells, 100 μL per well, and meanwhile add micropeptides HMMW I to IX at different doses to every cell. Add 0.6 mL of complete medium containing 10% FBS to the transwell cells to stimulate cell migration, and culture in 5% CO2 at 37 DEG C. for 24 h. Discard the medium in the wells, fix with 90% alcohol at room temperature for 30 min, stain with 0.1% crystal violet at room temperature for 10 min, rinse with clear water, gently wipe off the non-migrated cells in the upper layer with a cotton swab, observe under a microscope and select four fields of view to take pictures and count. Calculate the migration inhibition rate (MIR) of the cells according to the following formula: […]
The test was repeated independently three times. Mean±SD was calculated based on the test results. Statistical t test was done. Here, “the test was repeated independently three times” means that every dose of any type of cells was tested repeatedly three times, and then the above formula was used to calculate the number of migrated cells (Mean±SD). Value P was used to express statistical difference. The statistical significance of the results is a method for estimating how true the results are (the totality can be represented), *P<0.05 means significant difference, and **P<0.01 means very significant difference.

Test [2] has as its system TE13 cells of esophageal squamous cell carcinoma. In kind it is in vivo, BALB/c nude mice. Particulars: mouse, in vivo, 15 mg/kg. Here is the method: (§1) • (1) Massively culture SCC4 cells of head and neck cancer, SW579 cells of thyroid cancer, A549 cells of lung cancer, TE13 cells of esophageal squamous cell carcinoma, MGC803 cells of stomach cancer, MDA-MB-231 cells of breast cancer, UOK262 cells of kidney cancer, and A431 cells of skin cancer of human, digest with a 0.25% pancreatin solution, centrifuge the cell suspension at 1,000 rpm for 5 min after termination of digestion, re-suspend the cells by serum-free DMEM culture medium, then count the cells and adjust cell concentration to 5×10^7 cells/ml; • (2) Inoculate each nude mouse (female mice at the age of 4-6 weeks and with a weight of 14-16 g were ordered and adaptively reared for 1 week in an SPF animal breeding room) with 100 μl of the cell suspension of the corresponding group in the left armpit, and the number of cells injected is 5×10^6; • (3) After inoculation, the tumor growth at the inoculation sites of nude mice was closely observed. On the 7th day after inoculation, white scabs appeared at the inoculation sites, which could move subcutaneously after being touched. With the growth of tumor tissue, hard tumor masses were gradually formed at the inoculation sites. On about the 14th day, the average volume of the tumor tissue reached 100 mm^3. BALB/c nude mice were randomly divided into three groups (the normal saline group was a blank control group, the micropeptide HMMW at a dose of 10 mg/kg was a low-dose group, and the micropeptide HMMW at a dose of 15 mg/kg was a high-dose group), 6 mice in each group, and the animals weighed 16-18 g at the beginning of administration; • (4) The volume of the transplanted tumor was measured and recorded every two days. The calculation formula of tumor volume (TV) is shown below: TV=0.5×a×b^2 • where, a is the length of the transplanted tumor (mm), and b is the width of the transplanted tumor (mm). • (1) Massively culture SCC4 cells of head and neck cancer, SW579 cells of thyroid cancer, A549 cells of lung cancer, TE13 cells of esophageal squamous cell carcinoma, MGC803 cells of stomach cancer, MDA-MB-231 cells of breast cancer, UOK262 cells of kidney cancer, and A431 cells of skin cancer of human, digest with a 0.25% pancreatin solution, centrifuge the cell suspension at 1,000 rpm for 5 min after termination of digestion, re-suspend the cells by serum-free DMEM culture medium, then count the cells and adjust cell concentration to 5×10^7 cells/ml; • (2) Inoculate each nude mouse (female mice at the age of 4-6 weeks and with a weight of 14-16 g were ordered and adaptively reared for 1 week in an SPF animal breeding room) with 100 μl of the cell suspension of the corresponding group in the left armpit, and the number of cells injected is 5×10^6; • (3) After inoculation, the tumor growth at the inoculation sites of nude mice was closely observed. On the 7th day after inoculation, white scabs appeared at the inoculation sites, which could move subcutaneously after being touched. With the growth of tumor tissue, hard tumor masses were gradually formed at the inoculation sites. On about the 14th day, the average volume of the tumor tissue reached 100 mm^3. BALB/c nude mice were randomly divided into three groups (the normal saline group was a blank control group, and each of micropeptides HMMW I to IX formed a group at a dose of 15 mg/kg), 6 mice in each group, and the animals weighed 16-18 g at the beginning of administration; • (4) The volume of the transplanted tumor was measured and recorded every two days. The calculation formula of tumor volume (TV) is shown below: TV=0.5×a×b^2 • where, a is the length of the transplanted tumor (mm), and b is the width of the transplanted tumor (mm).

For test [3], the system named is A549 cells of lung cancer. The class given is in vivo, BALB/c nude mice. The note with it: mouse, in vivo, 15 mg/kg. Here is the method: as §1
The test system of test [4] is SCC4 cells of head and neck cancer. The class given is in vivo, BALB/c nude mice. Particulars: mouse, in vivo, 15 mg/kg. On the procedure:
as §1

The test system of test [5] is SW579 cells of thyroid cancer. In kind it is in vivo, BALB/c nude mice. The note with it: mouse, in vivo, 15 mg/kg. On the procedure: as §1
Test [6] relates to UOK262 cells of kidney cancer. In kind it is in vivo, BALB/c nude mice. Particulars: mouse, in vivo, 15 mg/kg. On the procedure: as §1
Test [7] concerns A431 cells of skin cancer. In kind it is in vivo, BALB/c nude mice. Particulars: mouse, in vivo, 15 mg/kg. On the procedure: as §1
Test [8] has as its system MDA-MB-231 cells of breast cancer. The class given is in vivo, BALB/c nude mice. Particulars: mouse, in vivo, 15 mg/kg. Here is the method: as §1
Test [9] relates to MGC803 cells of stomach cancer. In kind it is in vivo, BALB/c nude mice. Particulars: mouse, in vivo, 15 mg/kg. On the procedure:
as §1

No end group written: not given here.

Turning to “MGSTYNKRHSPRRSSVEAKMQSTSCSVRKSSTVTAWPAVVLLLSWGQRRGG-OH [HMMW-III]”, the values for the migration inhibition rate in [1] (dose 1 μM), in test [1] (dose 4 μM) and in test [1] (dose 16 μM) were 16.81%, 43.94% and 74.01%, respectively. In addition, the “in vivo tumor growth inhibition rate” value in test [2] amounted to 66.31%; in test [3], 73.08%; in [4], 70.84%; in test [5], 71.89%; in test [6] it was 61.67%; in test [7] it was 69.54%. Moreover, the figures for the “in vivo tumor growth inhibition rate” value in test [8] and in test [9] were 69.49% and 69.62%, respectively.

Turning to “MGSTYNPGFSPRRSSVEAKMQSTSCSVRKSSTVTAWPAVVLLLSWGQRRGG-OH [HMMW-V]”, the migration inhibition rate was determined as 18.36% in test [1] (dose 1 μM), 44.67% in [1] (dose 4 μM) and 71.04% in test [1] (dose 16 μM). Further, the “in vivo tumor growth inhibition rate” value in test [2] was determined as 63.46%; in test [3], 71.12%; in test [4], 67.14%; in test [5], 70.78%; in test [6], 64.16%; in test [7] it was 69.41%. Further, the “in vivo tumor growth inhibition rate” value in [8] was determined as 67.75%; in test [9] it was 71.04%.
